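Where inhibition never reached the appropriate level, the endpoint shown equals the highest concentration tested. Otherwise, values were interpolated linearly from a five-concentration, 48-hour dose response in 96-well plates. GI50: concentration for 50% inhibition of growth. TGI marks complete inhibition of growth.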
Tests used:
Assay in all cases: DTP human tumour cell line panel, 48 h
KM12 colon = system: KM12 colon
RPMI-8226 leukemia = system: RPMI-8226 leukemia
MDA-MB-231 breast = system: MDA-MB-231 breast
OVCAR-3 ovarian = system: OVCAR-3 ovarian
M14 melanoma = system: M14 melanoma
SNB-19 CNS = system: SNB-19 CNS
PC-3 prostate = system: PC-3 prostate
HCT-116 colon = system: HCT-116 colon
SF-295 CNS = system: SF-295 CNS
T-47D breast = system: T-47D breast
OVCAR-8 ovarian = system: OVCAR-8 ovarian
UO-31 renal = system: UO-31 renal
BT-549 breast = system: BT-549 breast
SF-539 CNS = system: SF-539 CNS
U251 CNS = system: U251 CNS
K-562 leukemia = system: K-562 leukemia
SN12C renal = system: SN12C renal
OVCAR-5 ovarian = system: OVCAR-5 ovarian
TK-10 renal = system: TK-10 renal
UACC-62 melanoma = system: UACC-62 melanoma
NCI-H522 lung = system: NCI-H522 lung
HCT-15 colon = system: HCT-15 colon
HCC-2998 colon = system: HCC-2998 colon
LOX IMVI melanoma = system: LOX IMVI melanoma
RXF 393 renal = system: RXF 393 renal
NCI-H23 lung = system: NCI-H23 lung
HL-60(TB) leukemia = system: HL-60(TB) leukemia
COLO 205 colon = system: COLO 205 colon
NCI-H226 lung = system: NCI-H226 lung
DU-145 prostate = system: DU-145 prostate
HOP-92 NSCLC = system: HOP-92 NSCLC
HS 578T breast = system: HS 578T breast
MDA-MB-435 = system: MDA-MB-435
ACHN renal = system: ACHN renal
MDA-MB-468 breast = system: MDA-MB-468 breast
HT29 colon = system: HT29 colon
A498 renal = system: A498 renal
MALME-3M melanoma = system: MALME-3M melanoma
CCRF-CEM leukemia = system: CCRF-CEM leukemia
SK-MEL-28 melanoma = system: SK-MEL-28 melanoma
OVCAR-4 ovarian = system: OVCAR-4 ovarian
SK-MEL-5 melanoma = system: SK-MEL-5 melanoma
CAKI-1 renal = system: CAKI-1 renal
IGROV1 ovarian = system: IGROV1 ovarian
SK-OV-3 ovarian = system: SK-OV-3 ovarian
A549 NSCLC = system: A549 NSCLC
SK-MEL-2 melanoma = system: SK-MEL-2 melanoma
UACC-257 melanoma = system: UACC-257 melanoma
NCI-H460 lung = system: NCI-H460 lung
SW-620 colon = system: SW-620 colon
MOLT-4 leukemia = system: MOLT-4 leukemia
HOP-62 NSCLC = system: HOP-62 NSCLC
SF-268 CNS = system: SF-268 CNS
MCF7 breast = system: MCF7 breast
786-0 renal = system: 786-0 renal
SNB-75 CNS = system: SNB-75 CNS

Compound: Nc1cccnc1/C=N/NC(=S)NCCNC(=O)c1ccc(-n2nc(-c3ccccc3O)nc2-c2ccccc2O)cc1
- GI50 (KM12 colon): 480 nM
- TGI (KM12 colon): 6530 nM
- GI50 (RPMI-8226 leukemia): 344 nM
- TGI (RPMI-8226 leukemia): 2090 nM
- GI50 (MDA-MB-231 breast): 471 nM
- TGI (MDA-MB-231 breast): 14900 nM
- GI50 (OVCAR-3 ovarian): 366 nM
- TGI (OVCAR-3 ovarian): 15900 nM
- GI50 (M14 melanoma): 425 nM
- TGI (M14 melanoma): 2470 nM
- GI50 (SNB-19 CNS): 337 nM
- TGI (SNB-19 CNS): > 100000 nM
- GI50 (PC-3 prostate): 376 nM
- TGI (PC-3 prostate): 13200 nM
- GI50 (HCT-116 colon): 305 nM
- TGI (HCT-116 colon): 6670 nM
- GI50 (SF-295 CNS): 541 nM
- TGI (SF-295 CNS): 2970 nM
- GI50 (T-47D breast): 225 nM
- TGI (T-47D breast): 1910 nM
- GI50 (OVCAR-8 ovarian): 418 nM
- GI50 (UO-31 renal): 1380 nM
- TGI (UO-31 renal): 5230 nM
- GI50 (BT-549 breast): 374 nM
- TGI (BT-549 breast): 2830 nM
- GI50 (SF-539 CNS): 106 nM
- TGI (SF-539 CNS): 1360 nM
- GI50 (U251 CNS): 305 nM
- GI50 (K-562 leukemia): 115 nM
- TGI (K-562 leukemia): > 100000 nM
- GI50 (SN12C renal): 494 nM
- TGI (SN12C renal): 6350 nM
- GI50 (OVCAR-5 ovarian): 1570 nM
- TGI (OVCAR-5 ovarian): > 28400 nM
- GI50 (TK-10 renal): 1270 nM
- TGI (TK-10 renal): > 29700 nM
- GI50 (UACC-62 melanoma): 236 nM
- TGI (UACC-62 melanoma): 1050 nM
- GI50 (NCI-H522 lung): 154 nM
- TGI (NCI-H522 lung): 798 nM
- GI50 (HCT-15 colon): 1980 nM
- TGI (HCT-15 colon): 11700 nM
- GI50 (HCC-2998 colon): 533 nM
- TGI (HCC-2998 colon): 8160 nM
- GI50 (LOX IMVI melanoma): 331 nM
- TGI (LOX IMVI melanoma): 1880 nM
- GI50 (RXF 393 renal): 1040 nM
- TGI (RXF 393 renal): 4060 nM
- GI50 (NCI-H23 lung): 454 nM
- TGI (NCI-H23 lung): 6970 nM
- GI50 (HL-60(TB) leukemia): 261 nM
- TGI (HL-60(TB) leukemia): 901 nM
- GI50 (COLO 205 colon): 329 nM
- TGI (COLO 205 colon): 11700 nM
- GI50 (NCI-H226 lung): 803 nM
- TGI (NCI-H226 lung): 4850 nM
- GI50 (DU-145 prostate): 1600 nM
- TGI (DU-145 prostate): > 100000 nM
- GI50 (HOP-92 NSCLC): 283 nM
- TGI (HOP-92 NSCLC): 5160 nM
- GI50 (HS 578T breast): 232 nM
- TGI (HS 578T breast): > 100000 nM
- GI50 (MDA-MB-435): 561 nM
- TGI (MDA-MB-435): > 100000 nM
- GI50 (ACHN renal): 1210 nM
- TGI (ACHN renal): 18500 nM
- GI50 (MDA-MB-468 breast): 249 nM
- TGI (MDA-MB-468 breast): 935 nM
- GI50 (HT29 colon): 472 nM
- TGI (HT29 colon): 2720 nM
- GI50 (A498 renal): 29700 nM
- TGI (A498 renal): > 100000 nM
- GI50 (MALME-3M melanoma): 628 nM
- TGI (MALME-3M melanoma): 8940 nM
- GI50 (CCRF-CEM leukemia): 186 nM
- TGI (CCRF-CEM leukemia): 1210 nM
- GI50 (SK-MEL-28 melanoma): 532 nM
- TGI (SK-MEL-28 melanoma): > 100000 nM
- GI50 (OVCAR-4 ovarian): 729 nM
- TGI (OVCAR-4 ovarian): > 100000 nM
- GI50 (SK-MEL-5 melanoma): 492 nM
- TGI (SK-MEL-5 melanoma): 2160 nM
- GI50 (CAKI-1 renal): 1240 nM
- TGI (CAKI-1 renal): > 20900 nM
- GI50 (IGROV1 ovarian): 355 nM
- TGI (IGROV1 ovarian): 11600 nM
- GI50 (SK-OV-3 ovarian): 594 nM
- TGI (SK-OV-3 ovarian): 3510 nM
- GI50 (A549 NSCLC): 1230 nM
- TGI (A549 NSCLC): > 23800 nM
- GI50 (SK-MEL-2 melanoma): 765 nM
- TGI (SK-MEL-2 melanoma): 9460 nM
- GI50 (UACC-257 melanoma): 838 nM
- TGI (UACC-257 melanoma): > 20700 nM
- GI50 (NCI-H460 lung): 396 nM
- TGI (NCI-H460 lung): 2460 nM
- GI50 (SW-620 colon): 648 nM
- TGI (SW-620 colon): > 100000 nM
- GI50 (MOLT-4 leukemia): 300 nM
- TGI (MOLT-4 leukemia): > 100000 nM
- GI50 (HOP-62 NSCLC): 487 nM
- TGI (HOP-62 NSCLC): 5460 nM
- GI50 (SF-268 CNS): 557 nM
- TGI (SF-268 CNS): > 64400 nM
- GI50 (MCF7 breast): 189 nM
- TGI (MCF7 breast): 4900 nM
- GI50 (786-0 renal): 790 nM
- TGI (786-0 renal): 3730 nM
- GI50 (SNB-75 CNS): 328 nM
- TGI (SNB-75 CNS): > 33800 nM
